# Assay results as given in patent publication US12018016B2, “Aryl sulfonyl (hydroxy) piperidines as CCR6 inhibitors” (CHEMOCENTRYX, INC., priority 2021, dated 2024).
# Biological target: T1, human CCR6 (Homo sapiens, UniProt P51684)
# T1 construct: expressed in transfected cells; host or cells: Ba/F3 cells (mouse pro-B line)
# T1 sequence (P51684 1-374): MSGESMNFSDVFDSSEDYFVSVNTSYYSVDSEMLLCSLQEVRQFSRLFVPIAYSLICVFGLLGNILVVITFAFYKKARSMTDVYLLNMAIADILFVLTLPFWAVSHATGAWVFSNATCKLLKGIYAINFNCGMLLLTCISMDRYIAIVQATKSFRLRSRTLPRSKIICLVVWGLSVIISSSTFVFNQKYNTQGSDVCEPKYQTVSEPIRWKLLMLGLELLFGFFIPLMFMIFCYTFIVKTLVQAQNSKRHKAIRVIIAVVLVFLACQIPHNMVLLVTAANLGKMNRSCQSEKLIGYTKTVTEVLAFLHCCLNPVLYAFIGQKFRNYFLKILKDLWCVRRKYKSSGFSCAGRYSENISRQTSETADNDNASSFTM
# Experiment: Migration assay (chemotaxis, ChemoTX)
# Assay type: cell-based
# Settings: hCCR6-transfected Ba/F3 cells in human serum, migration to recombinant human CCL20 10 nM, 37° C. 45 minutes; read-out: Potency (IC50 value in the migration assay)
# Source text: A chemotaxis assay can be used to determine the efficacy of potential receptor antagonists at blocking the migration mediated through chemokine receptors, such as CCR6. This assay is routinely performed using the ChemoTX® microchamber system with a 5-μm pore-sized polycarbonate membrane. Chemokine receptor-expressing cells are required for such an assay. In this case, Ba/F3 cells (Palacios et al., Nature, 309:126, 1984) transfected with the gene for human CCR6 under control of the CMV promotor were used. To begin such an assay, hCCR6-transfected Ba/F3 cells are first grown for 24 hr in medium supplemented with sodium butyrate, which increases CCR6 transcription via the CMV promotor. The prepared Ba/F3 cells, are collected by centrifugation at 400×g at room temperature, then suspended at 4 million/ml in human serum. The compound being tested is serially diluted from a maximum final concentration of 1 μM (or an equivalent volume of its solvent (DMSO)) and is then added to the cell/serum mixture. Separately, recombinant human CCL20 (MIP-3α/LARC) at its EC50 concentration (10 nM) is placed in the lower wells of the ChemoTX® plate. The 5-μm (pore size) polycarbonate membrane is placed onto the plate, and 20 μL of the cell/compound mixture is transferred onto each well of the membrane. The plates are incubated at 37° C. for 45 minutes, after which the polycarbonate membranes are removed and 5 μl of the DNA-intercalating dye CyQUANT (Invitrogen, Carlsbad, CA) is added to the lower wells. The amount of fluorescence, corresponding to the number of migrated cells, is measured using a Spectrafluor Plus plate reader (TECAN, San Jose, CA).
row,Structure (SMILES),IC50 [nM]
1,O=C1C[C@H](Nc2cc(-c3ccc(S(=O)(=O)N4CC[C@@H](Nc5ccc(C(F)(F)F)cn5)[C@@H](O)C4)cc3)ccn2)CN1 [Compound 127],1 to 10
2,NC(=O)c1ncc(-c2ccc(S(=O)(=O)N3CC[C@@H](Nc4ccc(C(F)(F)F)cn4)[C@@H](O)C3)cc2)[nH]1 [Compound 197],1 to 10
3,"NC(=O)c1cncc(-c2ccc(S(=O)(=O)N3CC[C@@H](Nc4ccc(C(F)(F)F)cn4)[C@@H](O)C3)cc2)c1 [Example 27, 5-(4-(((3S,4R)-3-Hydroxy-4-((5-(trifluoromethyl)pyridin-2-yl)amino)piperidin-1-yl)sulfonyl)phenyl)nicotinamide]",1 to 10
4,CN(C)C1CN(c2cc(-c3ccc(S(=O)(=O)N4CC[C@@H](Nc5ccc(C(F)(F)F)cn5)[C@@H](O)C4)cc3)ccn2)C1 [Compound 177],1 to 10
5,COC1CN(c2cc(-c3ccc(S(=O)(=O)N4CC[C@@H](Nc5ccc(C(F)(F)F)cn5)[C@@H](O)C4)cc3)ccn2)C1 [Compound 136],1 to 10
6,CN(c1ccc(-c2ccc(S(=O)(=O)N3CC[C@@H](Nc4ccc(C(F)(F)F)cn4)[C@@H](O)C3)cc2)cn1)C1CCC1 [Compound 102],1 to 10
7,N#Cc1cnccc1-c1ccc(S(=O)(=O)N2CC[C@@H](Nc3ccc(C(F)(F)F)cn3)[C@@H](O)C2)cc1 [Compound 149],1 to 10
8,O=S(=O)(c1ccc(-c2ccc(N3CC4(CNC4)C3)nc2)cc1)N1CC[C@@H](Nc2ccc(C(F)(F)F)cn2)[C@@H](O)C1 [Compound 104],< 1
9,COc1cc(-c2ccc(S(=O)(=O)N3CC[C@@H](Nc4ccc(C(F)(F)F)cn4)[C@@H](O)C3)cc2)cc(-c2nnc(C)o2)n1 [Compound 214],< 1
10,O=S(=O)(c1ccc(-c2cnc3[nH]ccc3c2Cl)cc1)N1CC[C@@H](Nc2ccc(C(F)(F)F)cn2)[C@@H](O)C1 [Compound 209],< 1
11,O=S(=O)(c1ccc(-c2ccc(N3CCC3)nc2)cc1)N1CC[C@@H](Nc2ccc(C(F)(F)F)cn2)[C@@H](O)C1 [Compound 100],< 1
12,"NC(=O)c1cccc(-c2ccc(S(=O)(=O)N3CC[C@@H](Nc4ccc(C(F)(F)F)cn4)[C@@H](O)C3)cc2)n1 [Example 7, 6-(4-(((3S,4R)-3-Hydroxy-4-((5-(trifluoromethyl)pyridin-2-yl)amino)piperidin-1-yl)sulfonyl)phenyl)picolinamide]",< 1
13,O=C1CNCCN1c1ccc(-c2ccc(S(=O)(=O)N3CC[C@@H](Nc4ccc(C(F)(F)F)cn4)[C@@H](O)C3)cc2)cn1 [Compound 179],< 1
14,"Cc1noc(-c2cc(-c3ccc(S(=O)(=O)N4CC[C@@H](Nc5ccc(C(F)(F)F)cn5)[C@@H](O)C4)cc3)ccn2)n1 [Compound 66, (3S,4R)-1-((4-(2-(3-methyl-1,2,4-oxadiazol-5-yl)pyridin-4-yl)phenyl)sulfonyl)-4-((5-(trifluoromethyl)pyridin-2-yl)amino)piperidin-3-ol]",1 to 10

# Continued, values first:
row,IC50 [nM],Structure (SMILES)
1,< 1,"NC(=O)c1ncc(-c2ccc(S(=O)(=O)N3CC[C@@H](Nc4ccc(C(F)(F)F)cn4)[C@@H](O)C3)cc2)s1 [Example 42, 5-(4-(((3S,4R)-3-Hydroxy-4-((5-(trifluoromethyl)pyridin-2-yl)amino)piperidin-1-yl)sulfonyl)phenyl)thiazole-2-carboxamide]"
2,< 1,O=S(=O)(c1ccc(-c2cnnc(Cl)c2)cc1)N1CC[C@@H](Nc2ccc(C(F)(F)F)cn2)[C@@H](O)C1 [Compound 201]
3,< 1,"Cc1cc2[nH]nc(C#N)c2cc1-c1ccc(S(=O)(=O)N2CC[C@@H](Nc3ccc(C(F)(F)F)cn3)[C@@H](O)C2)cc1 [Example 36, 5-(4-(((3S,4R)-3-hydroxy-4-((5-(trifluoromethyl)pyridin-2-yl)amino)piperidin-1-yl)sulfonyl)phenyl)-6-methyl-1H-indazole-3-carbonitrile]"
4,< 1,CN(c1cc(-c2ccc(S(=O)(=O)N3CC[C@@H](Nc4ccc(C(F)(F)F)cn4)[C@@H](O)C3)cc2)ccn1)C1CCC1 [Compound 130]
5,< 1,"N#Cc1ccc(N[C@@H]2CCN(S(=O)(=O)c3ccc(-c4cnc5[nH]cc(C#N)c5c4)cc3)C[C@@H]2O)nc1 [Example 34, 5-[4-[[(3S,4R)-4-[(5-cyano-2-pyridyl)amino]-3-hydroxy-1-piperidyl]sulfonyl]phenyl]-1H-pyrrolo[2,3-b]pyridine-3-carbonitrile]"
6,< 1,COc1c(-c2ccc(S(=O)(=O)N3CC[C@@H](Nc4ccc(C(F)(F)F)cn4)[C@@H](O)C3)cc2)cnc2[nH]cc(C#N)c12 [Compound 118]
7,< 1,O=S(=O)(c1ccc(-c2ccc(N3CC4(COC4)C3)nc2)cc1)N1CC[C@@H](Nc2ccc(C(F)(F)F)cn2)[C@@H](O)C1 [Compound 93]
8,< 1,O=S(=O)(c1ccc(-c2ccc(N3CCCC3)nc2)cc1)N1CC[C@@H](Nc2ccc(C(F)(F)F)cn2)[C@@H](O)C1 [Compound 172]
9,< 1,"Cc1c(-c2ccc(S(=O)(=O)N3CC[C@@H](Nc4ccc(C(F)(F)F)cn4)[C@@H](O)C3)cc2)ccc2[nH]ncc12 [Example 26, (3S,4R)-1-((4-(4-methyl-1H-indazol-5-yl)phenyl)sulfonyl)-4-((5-(trifluoromethyl)pyridin-2-yl)amino)piperidin-3-ol]"
10,< 1,O=C(NCCO)c1cc(-c2ccc(S(=O)(=O)N3CC[C@@H](Nc4ccc(C(F)(F)F)cn4)[C@@H](O)C3)cc2)ccn1 [Example 41]
11,< 1,"Cc1cnc(C(N)=O)cc1-c1ccc(S(=O)(=O)N2CC[C@@H](Nc3ccc(C(F)(F)F)cn3)[C@@H](O)C2)cc1 [Example 20, 4-(4-(((3S,4R)-3-Hydroxy-4-((5-(trifluoromethyl)pyridin-2-yl)amino)piperidin-1-yl)sulfonyl)phenyl)-5-methylpicolinamide]"
12,< 1,N[C@H]1C[C@H](Nc2ccc(-c3ccc(S(=O)(=O)N4CC[C@@H](Nc5ccc(C(F)(F)F)cn5)[C@@H](O)C4)cc3)cn2)C1 [Compound 94]
13,< 1,O=S(=O)(c1ccc(-c2ccnc(N3CCC(O)CC3)c2)cc1)N1CC[C@@H](Nc2ccc(C(F)(F)F)cn2)[C@@H](O)C1 [Compound 131]
14,< 1,O=S(=O)(c1ccc(-c2ccc(N3CC[C@@H](O)C3)nc2)cc1)N1CC[C@@H](Nc2ccc(C(F)(F)F)cn2)[C@@H](O)C1 [Compound 176]
15,< 1,"Cc1nc2[nH]cc(C#N)c2c(C)c1-c1ccc(S(=O)(=O)N2CC[C@@H](Nc3ccc(C(F)(F)F)cn3)[C@@H](O)C2)cc1 [Example 63, 5-(4-(((3S,4R)-3-hydroxy-4-((5-(trifluoromethyl)pyridin-2-yl)amino)piperidin-1-yl)sulfonyl)phenyl)-4,6-dimethyl-1H-pyrrolo[2,3-b]pyridine-3-carbonitrile]"
16,< 1,"Nc1nc2ccc(-c3ccc(S(=O)(=O)N4CC[C@@H](Nc5ccc(C(F)(F)F)cn5)[C@@H](O)C4)cc3)cc2c(=O)[nH]1 [Example 30, 2-amino-6-(4-(((3S,4R)-3-hydroxy-4-((5-(trifluoromethyl)pyridin-2-yl)amino)piperidin-1-yl)sulfonyl)phenyl)quinazolin-4(3H)-one]"
17,< 1,N#Cc1n[nH]c2ncc(-c3ccc(S(=O)(=O)N4CC[C@@H](Nc5ccc(C(F)(F)F)cn5)[C@@H](O)C4)cc3)cc12 [Compound 193]
18,< 1,"COc1cc(-c2ccc(S(=O)(=O)N3CC[C@@H](Nc4ccc(C(F)(F)F)cn4)[C@@H](O)C3)cc2)cc2cn[nH]c(=O)c12 [Compound 79, 6-(4-(((3S,4R)-3-hydroxy-4-((5-(trifluoromethyl)pyridin-2-yl)amino)piperidin-1-yl)sulfonyl)phenyl)-8-methoxyphthalazin-1(2H)-one]"
19,< 1,COc1cnc(C)cc1-c1ccc(S(=O)(=O)N2CC[C@@H](Nc3ccc(C(F)(F)F)cn3)[C@@H](O)C2)cc1 [Compound 156]
20,< 1,"O=S(=O)(c1ccc(-c2ccnc(N3CCCC3)c2)cc1)N1CC[C@@H](Nc2ccc(C(F)(F)F)cn2)[C@@H](O)C1 [Compound 90, (3S,4R)-1-((4-(2-(pyrrolidin-1-yl)pyridin-4-yl)phenyl)sulfonyl)-4-((5-(trifluoromethyl)pyridin-2-yl)amino)piperidin-3-ol]"
21,< 1,"Cc1cc(-c2ccc(S(=O)(=O)N3CC[C@@H](Nc4ccc(C(F)(F)F)cn4)[C@@H](O)C3)cc2)cc2c(C#N)n[nH]c12 [Example 43, 5-(4-(((3S,4R)-3-hydroxy-4-((5-(trifluoromethyl)pyridin-2-yl)amino)piperidin-1-yl)sulfonyl)phenyl)-7-methyl-1H-indazole-3-carbonitrile]"
